pKd: −log10 of the molar value.
Assays:
Format in all cases: binding
[1] = biological target: HDAC1 (Homo sapiens (Human), UniProt Q13547); assay: Reporter displacement assay (HDAC1); details: for pKd: reporter probe displacement, Cheng Prusoff
Procedure: [The procedure below names another target; the source lists this target under the same test.] (§1) HDAC2 containing a C-terminal HIS-Tag (Proteros) and fluorescently-labeled anti-HIS-antibody are diluted in one vial in assay buffer 50 mM Tris, pH 8.0, 1 mM DTT, 150 mM NaCl, and 0.01% Tween20. Components are pre-incubated for 30 min, then a small volume of reporter probe (Proteros) is added from a highly concentrated stock and incubation is continued for another 30 min.
(§2) Ten μl/well of pre-formed complex are transferred into 384 well assay plates (Corning). Compounds to be profiled are serially diluted from […] in DMSO and 60 nl are added to assay plates by pintool transfer (CybiWell, Cybio).
For Kd determination, percent probe displacement values are calculated for each compound concentration and plotted against the compound concentration. […] Since the reporter probe is used at a concentration reflecting its own Kd value, compound Kd values can be calculated according to the Cheng Prusoff equation.

[2] = biological target: T1, HDAC2 (Homo sapiens (Human), UniProt Q92769); assay: Reporter displacement assay (HDAC2); details: reporter probe displacement, Cheng Prusoff
T1 sequence (Q92769 whole entry): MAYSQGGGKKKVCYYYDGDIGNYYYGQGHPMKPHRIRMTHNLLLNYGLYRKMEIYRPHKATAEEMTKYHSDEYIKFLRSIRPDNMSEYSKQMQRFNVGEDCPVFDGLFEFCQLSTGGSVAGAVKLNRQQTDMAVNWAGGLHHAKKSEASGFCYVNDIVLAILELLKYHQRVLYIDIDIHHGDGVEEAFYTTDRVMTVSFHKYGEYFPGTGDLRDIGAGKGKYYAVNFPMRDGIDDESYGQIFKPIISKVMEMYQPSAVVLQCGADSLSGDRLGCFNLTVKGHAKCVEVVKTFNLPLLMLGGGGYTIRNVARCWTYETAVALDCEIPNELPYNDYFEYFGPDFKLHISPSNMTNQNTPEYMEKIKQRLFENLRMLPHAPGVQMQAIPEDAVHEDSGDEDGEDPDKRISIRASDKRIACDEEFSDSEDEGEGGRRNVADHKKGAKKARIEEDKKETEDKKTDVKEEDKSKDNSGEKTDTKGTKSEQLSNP
Procedure: as §1, with “min. Final concentrations after adding the reporter probe amount to 20 nM HDAC2, 4 nM antibody, and 180 nM probe.” for “min.”
as §2, with “Cybio). Fluorescence intensity signal is read after 4 h in a Pherastar FS (BMG Labtech) at 337/665 nm.” for “Cybio).”
For Kd determination, percent probe displacement values are calculated for each compound concentration and plotted against the compound concentration. IC50-like values (corresponding to 50% probe displacement) are calculated using standard fitting algorithms. Since the reporter probe is used at a concentration reflecting its own Kd value, compound Kd values can be calculated according to the Cheng Prusoff equation.
In the table, “A” indicates a Kd value of less than 0.1 μM; “B” a Kd value of between 0.1 μM and 0.5 μM; “C” a Kd value of greater than 0.5 μM and less than or equal to 5.0 μM; and “D” a Kd value of greater than 5.0 μM.

[3] = biological target: T1, HDAC2; assay: Reporter displacement assay (HDAC2)

Chain of HDAC1 (Q13547 whole entry): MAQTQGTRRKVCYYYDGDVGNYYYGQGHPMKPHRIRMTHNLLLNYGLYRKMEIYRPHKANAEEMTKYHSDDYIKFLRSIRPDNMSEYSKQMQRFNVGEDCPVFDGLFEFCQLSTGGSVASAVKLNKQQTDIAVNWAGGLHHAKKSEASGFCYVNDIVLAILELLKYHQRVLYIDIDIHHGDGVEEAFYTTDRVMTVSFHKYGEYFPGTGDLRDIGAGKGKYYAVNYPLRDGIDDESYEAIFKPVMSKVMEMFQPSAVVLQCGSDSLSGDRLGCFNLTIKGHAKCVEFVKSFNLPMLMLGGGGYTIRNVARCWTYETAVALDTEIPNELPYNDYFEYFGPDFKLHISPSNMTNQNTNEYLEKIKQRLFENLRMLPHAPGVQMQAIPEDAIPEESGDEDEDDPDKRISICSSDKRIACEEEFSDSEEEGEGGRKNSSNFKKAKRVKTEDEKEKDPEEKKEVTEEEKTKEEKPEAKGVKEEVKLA

| SMILES | residence time [1] | pKd [1] | pKd [2] | residence time [3] |
| --- | --- | --- | --- | --- |
| Nc1ccc(-c2ccncc2)cc1NC(=O)N1Cc2cncnc2C1 [Compound 100] | 470 min | 6.30 to 7.00 |  |  |
| Nc1ccc(-c2ccncn2)cc1NC(=O)N1Cc2ccncc2C1 [Compound 103] | 330 min | 5.30 to 6.30 | 5.30 to 6.30 | 1960 min |
| CC(C)(C)OC(=O)N1CC2CC1CN2C(=O)Nc1cc(-c2ccncc2)ccc1N (stereo not drawn) [Compound 104] |  | < 5.30 | < 5.30 |  |
| Nc1ccc(-c2ccncc2)cc1NC(=O)N1CC2CCC(C1)O2 [Compound 105] |  | < 5.30 | < 5.30 |  |
| CC(C)(C)OC(=O)N1C2CCC1CN(C(=O)Nc1cc(-c3ccncc3)ccc1N)C2 [Compound 106] |  | < 5.30 | < 5.30 |  |
| CC(=O)N1C2CCC1CN(C(=O)Nc1cc(-c3ccncc3)ccc1N)C2 [Compound 107] |  | < 5.30 | < 5.30 |  |
| CC(=O)N1C2CCC1CN(C(=O)Nc1cc(-c3ccncc3)ccc1N)C2 [Compound 109] |  | < 5.30 | < 5.30 |  |
| CC(C)(C)OC(=O)N1C2CCC1CN(C(=O)Nc1cc(-c3ccncc3)ccc1N)C2 [Compound 110] |  | < 5.30 | < 5.30 |  |
| CC(C)(C)OC(=O)N1C2CCC1CN(C(=O)Nc1cc(-c3ccc(F)cc3)ccc1N)C2 [Compound 112] | 9 min | < 5.30 | < 5.30 | 38 min |
| Nc1ccc(-c2ccc(F)cc2)cc1NC(=O)N1CC2CCC(C1)N2 [Compound 113] |  | < 5.30 | < 5.30 |  |
| CN1CC2CN(C(=O)Nc3cc(-c4ccncc4)ccc3N)CC2C1=O (stereo not drawn) [Compound 115] | 98 min | 5.30 to 6.30 | 5.30 to 6.30 |  |
| CC(=O)N1C2CCC1CN(C(=O)Nc1cc(-c3ccc(F)cc3)ccc1N)C2 [Compound 116] | 16 min | < 5.30 | < 5.30 | 30 min |
| Nc1ccc(-c2ccc(F)cc2)cc1NC(=O)N1CC2CCC(C1)N2C=O [Compound 117] | 29 min | < 5.30 | 5.30 to 6.30 | 36 min |
| Nc1ccc(-c2ccc(F)cc2)cc1NC(=O)N1Cc2nccnc2C1 [Compound 119] | 1500 min | 6.30 to 7.00 | 6.30 to 7.00 | 2150 min |
| Nc1ccc(-c2ccc(F)cc2)cc1NC(=O)c1cn2c(n1)CNCC2 [Compound 122] | 1480 min | > 7.00 | 6.30 to 7.00 | 1950 min |
| Nc1ccc(-c2ccncc2)cc1NC(=O)c1cn2c(n1)CNCC2 [Compound 123] | 1050 min | 6.30 to 7.00 | 6.30 to 7.00 | 1610 min |
| Nc1ccc(-c2ccc(F)cc2)cc1NC(=O)N1CC2CN(C(=O)C3CC3)CC2C1 (stereo not drawn) [Compound 125] | 788 min | > 7.00 | 6.30 to 7.00 | 1410 min |
| Nc1ccc(-c2ccc(F)cc2)cc1NC(=O)N1CC2CN(C3COC3)CC2C1 (stereo not drawn) [Compound 126] | 937 min | > 7.00 | 6.30 to 7.00 | 2620 min |
| Nc1ccc(-c2ccc(F)cc2)cc1NC(=O)N1CCC2(CC1)COC2 [Compound 127] | 1520 min | > 7.00 | 6.30 to 7.00 | 2540 min |
| N#CC1CCc2nc(C(=O)Nc3cc(-c4ccc(F)cc4)ccc3N)cn2C1 (stereo not drawn) [Compound 128] | 1730 min | > 7.00 | 6.30 to 7.00 | 1500 min |
| Nc1ccc(-c2ccncc2)cc1NC(=O)N1CC2CN(C3COC3)CC2C1 (stereo not drawn) [Compound 129] | 724 min | > 7.00 | 6.30 to 7.00 | 1700 min |
| Nc1ccc(-c2ccc(Cl)cc2)cc1NC(=O)N1Cc2ccncc2C1 [Compound 130] | 1080 min | > 7.00 | 6.30 to 7.00 | 1300 min |
| Nc1ccc(-c2ccc(F)c(F)c2)cc1NC(=O)c1cn2c(n1)CNCC2 [Compound 131] | 695 min | 6.30 to 7.00 | 6.30 to 7.00 | 1200 min |
| Nc1ccc(-c2ccc(C(F)(F)F)cc2F)cc1NC(=O)N1Cc2ccncc2C1 [Compound 132] | 47 min | 5.30 to 6.30 | 5.30 to 6.30 | 111 min |
| COCCN1CCC2(CCN(C(=O)Nc3cc(-c4ccncc4)ccc3N)CC2)C1 [Compound 136] | 941 min | > 7.00 | 6.30 to 7.00 | 1540 min |
| COc1ccc(-c2ccc(N)c(NC(=O)N3Cc4ccncc4C3)c2)cc1 [Compound 139] | 1450 min | > 7.00 | > 7.00 | 2260 min |
| Nc1ccc(-c2ccc(C(F)(F)F)cc2)cc1NC(=O)N1Cc2ccncc2C1 [Compound 140] | 34 min | 5.30 to 6.30 | 5.30 to 6.30 | 341 min |
| Cc1cc(F)ccc1-c1ccc(N)c(NC(=O)N2Cc3ccncc3C2)c1 [Compound 141] | 1350 min | < 5.30 | < 5.30 |  |
| Nc1ccc(-c2cc(F)c(F)c(F)c2)cc1NC(=O)N1Cc2ccncc2C1 [Compound 142] | 982 min | 5.30 to 6.30 | 5.30 to 6.30 | 1010 min |

Second part, the molecule after the results:

| residence time [1] | pKd [1] | pKd [2] | residence time [3] | SMILES |
| --- | --- | --- | --- | --- |
| 906 min | > 7.00 | 6.30 to 7.00 | 1930 min | Nc1ccc(-c2ccncc2)cc1NC(=O)N1Cc2nccnc2C1 [Compound 101] |
| 1240 min | > 7.00 | 6.30 to 7.00 | 1410 min | Nc1ccc(-c2ccncc2)cc1NC(=O)N1Cc2ccncc2C1 [Compound 102] |
|  | < 5.30 | < 5.30 |  | CC(=O)N1CC2CC1CN2C(=O)Nc1cc(-c2ccncc2)ccc1N (stereo not drawn) [Compound 108] |
| 34 min | < 5.30 | < 5.30 | 61 min | Nc1ccc(-c2ccc(F)cc2)cc1NC(=O)N1CC2CCC(C1)O2 [Compound 111] |
| 127 min | < 5.30 | 5.30 to 6.30 | 1470 min | Nc1ccc(-c2ccc(F)cc2)cc1NC(=O)N1CC2CNCC2C1 (stereo not drawn) [Compound 114] |
| 1180 min | > 7.00 | 6.30 to 7.00 | 636 min | Nc1ccc(-c2ccc(F)cc2)cc1NC(=O)N1CCC2(CCNC2)CC1 [Compound 118] |
| 1550 min | > 7.00 | 6.30 to 7.00 | 2360 min | CNC(=O)N1CC2CN(C(=O)Nc3cc(-c4ccc(F)cc4)ccc3N)CC2C1 (stereo not drawn) [Compound 120] |
| 587 min | 6.30 to 7.00 | 5.30 to 6.30 | 869 min | NCC(=O)N1CC2CN(C(=O)Nc3cc(-c4ccc(F)cc4)ccc3N)CC2C1 (stereo not drawn) [Compound 121] |
| 584 min | 6.30 to 7.00 | 6.30 to 7.00 | 1790 min | CC(C)(C)OC(=O)N1CC2CN(C(=O)Nc3cc(-c4ccc(F)cc4)ccc3N)CC2C1 (stereo not drawn) [Compound 124] |
| 1300 min | > 7.00 | 6.30 to 7.00 | 1460 min | Nc1ccc(-c2ccc(F)cc2F)cc1NC(=O)N1Cc2ccncc2C1 [Compound 133] |
| 192 min | 6.30 to 7.00 | 6.30 to 7.00 | 790 min | Nc1ccc(-c2cccnc2)cc1NC(=O)N1Cc2ccncc2C1 [Compound 134] |
| 353 min | 6.30 to 7.00 | 6.30 to 7.00 | 1210 min | Nc1ccc(-c2ccc(F)c(F)c2)cc1NC(=O)N1Cc2ccncc2C1 [Compound 135] |
| 552 min | 6.30 to 7.00 | 6.30 to 7.00 | 1380 min | Nc1ccc(-c2ccc(F)c(F)c2)cc1NC(=O)N1Cc2nccnc2C1 [Compound 137] |
| 724 min | 6.30 to 7.00 | 6.30 to 7.00 | 2370 min | COCCN1CCC2(CCN(C(=O)Nc3cc(-c4ccc(F)cc4)ccc3N)CC2)C1 [Compound 138] |
| 1200 min | > 7.00 | 6.30 to 7.00 | 1490 min | Nc1ccc(-c2ccc(F)cc2)cc1NC(=O)N1CCC2(CCN(CCF)C2)CC1 [Compound 143] |
| 296 min | 5.30 to 6.30 | 5.30 to 6.30 | 1490 min | Nc1ccc(-c2ccncc2)cc1NC(=O)N1CCC2(CCN(CCF)C2)CC1 [Compound 144] |
|  | 6.30 to 7.00 | 5.30 to 6.30 |  | Nc1ccc(-c2ccc(F)c(Cl)c2)cc1NC(=O)N1Cc2ccncc2C1 [Compound 163] |
